The values that follow come from patent US11446287B2, “Compounds and methods for EP300 or CBP modulation and indications therefor” (Opna Immuno-Oncology SA, priority 2019, dated 2022).

Structures are written as SMILES.

The target of this experiment is T1, Recombinant human BRD4 containing dual bromodomains (BRD4-BD12 (1-477)) (Homo sapiens, UniProt O60885).
T1 construct: Recombinant human BRD4 containing dual bromodomains (BRD4-BD12 (1-477)); made in house; host or cells: E. coli BL21-CodonPlus (DE3), modified pET vector
Kind of experiment: BRD4 Alphascreen binding assay. The method, boiled down:
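AlphaScreen proximity between Ni-chelate-bound BRD4-BD12 (1-477) and streptavidin-captured H4 K5/K8/K12/K16-acetyl peptide measured after 1 h room-temperature compound incubation and 30 min with 7.5 μg/ml beads. Buffer: 50 mM HEPES pH 7.5, 50 mM NaCl, 0.01% BSA, 0.01% Triton X-100; data plate-normalized and four-parameter fit for IC50.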
(In general: Alpha assays give light when donor and acceptor beads are brought close together.)

`Cc1noc(C)c1-c1cnc2c(c1)c(-c1cnn(C(C)(C)C(=O)O)c1)cn2C(c1ccccn1)C1CCCC1` (stereo not drawn) [P-0035, 2-(4-(1-(cyclopentyl(pyridin-2-yl)methyl)-5-(3,5-dimethylisoxazol-4-yl)-1H-pyrrolo[2,3-b]pyridin-3-yl)-1H-pyrazol-1-yl)-2-methylpropanoic acid]: the IC50 lay in the range of 1 to 8 µM.
As for `Cc1noc(C)c1-c1cnc2c(c1)c(-c1cnn(CC(=O)O)c1)cn2C(c1ccccn1)C1CCCC1` (stereo not drawn) [P-0036, 2-(4-(1-(cyclopentyl(pyridin-2-yl)methyl)-5-(3,5-dimethylisoxazol-4-yl)-1H-pyrrolo[2,3-b]pyridin-3-yl)-1H-pyrazol-1-yl)acetic acid], the figure is 1 to 8 µM; as for `Cc1noc(C)c1-c1cnc2c(c1)c(-c1cnn(CC(C)(C)O)c1)cn2C(c1ccccn1)C1CCCC1` (stereo not drawn) [P-0037, 1-(4-(1-(cyclopentyl(pyridin-2-yl)methyl)-5-(3,5-dimethylisoxazol-4-yl)-1H-pyrrolo[2,3-b]pyridin-3-yl)-1H-pyrazol-1-yl)-2-methylpropan-2-ol], 1 to 8 µM; as for `Cc1noc(C)c1-c1cnc2c(c1)c(-c1ccc(C(=O)O)c(Cl)c1)cn2C(c1ccccn1)C1CCCC1` (stereo not drawn) [P-0038, 2-chloro-4-(1-(cyclopentyl(pyridin-2-yl)methyl)-5-(3,5-dimethylisoxazol-4-yl)-1H-pyrrolo[2,3-b]pyridin-3-yl)benzoic acid], 1 to 8 µM.
In the case of `COC(=O)c1cc(-c2cn(C(c3ccccn3)C3CCCC3)c3ncc(-c4c(C)noc4C)cc23)ccn1` (stereo not drawn) [P-0040, methyl 4-(1-(cyclopentyl(pyridin-2-yl)methyl)-5-(3,5-dimethylisoxazol-4-yl)-1H-pyrrolo[2,3-b]pyridin-3-yl)picolinate] it was 1 to 8 µM; in that of `Cc1noc(C)c1-c1cnc2c(c1)c(-c1ccnc(C(=O)O)c1)cn2C(C1CC1)C1CC1` [P-0041, 4-(1-(dicyclopropylmethyl)-5-(3,5-dimethylisoxazol-4-yl)-1H-pyrrolo[2,3-b]pyridin-3-yl)picolinic acid], 0.0001 to 1 µM; in that of `Cc1noc(C)c1-c1cnc2c(c1)c(-c1ccnc(C(=O)O)c1)cn2Cc1ccccc1` [P-0042, 4-(1-benzyl-5-(3,5-dimethylisoxazol-4-yl)-1H-pyrrolo[2,3-b]pyridin-3-yl)picolinic acid], 0.0001 to 1 µM.
In the case of `Cc1noc(C)c1-c1cnc2c(c1)c(-c1ccnc(C(=O)O)c1)cn2C(c1ccccn1)C1CCC1` (stereo not drawn) [P-0043, 4-(1-(cyclobutyl(pyridin-2-yl)methyl)-5-(3,5-dimethylisoxazol-4-yl)-1H-pyrrolo[2,3-b]pyridin-3-yl)picolinic acid] it was 1 to 8 µM; in that of `Cc1noc(C)c1-c1cnc2c(c1)c(-c1ccnc(C(=O)O)c1)cn2Cc1ccccn1` [P-0044, 4-(5-(3,5-dimethylisoxazol-4-yl)-1-(pyridin-2-ylmethyl)-1H-pyrrolo[2,3-b]pyridin-3-yl)picolinic acid], 0.0001 to 1 µM.
In the case of `Cc1noc(C)c1-c1cnc2c(c1)c(-c1ccnc(C(=O)O)c1)cn2CC1CC1` [P-0045, 4-(1-(cyclopropylmethyl)-5-(3,5-dimethylisoxazol-4-yl)-1H-pyrrolo[2,3-b]pyridin-3-yl)picolinic acid], the IC50 was in the range of 0.0001 to 1 µM.
As for `COC(=O)c1cc(-c2cn(C(c3ccccn3)C3CCC3)c3ncc(-c4c(C)noc4C)cc23)ccn1` (stereo not drawn) [P-0046, methyl 4-(1-(cyclobutyl(pyridin-2-yl)methyl)-5-(3,5-dimethylisoxazol-4-yl)-1H-pyrrolo[2,3-b]pyridin-3-yl)picolinate], the figure is 8 to 1000 µM; as for `COc1cc(C(=O)O)ccc1-c1cn([C@@H](C)c2ccccn2)c2ncc(-c3c(C)noc3C)cc12` [P-0047, (S)-4-(5-(3,5-dimethylisoxazol-4-yl)-1-(1-(pyridin-2-yl)ethyl)-1H-pyrrolo[2,3-b]pyridin-3-yl)-3-methoxybenzoic acid], 1 to 8 µM.
In the case of `Cc1noc(C)c1-c1cnc2c(c1)c(-c1cccc(C(=O)O)c1)cn2Cc1ccccc1` [P-0048, 3-(1-benzyl-5-(3,5-dimethylisoxazol-4-yl)-1H-pyrrolo[2,3-b]pyridin-3-yl)benzoic acid] it was 1 to 8 µM.
In the case of `Cc1noc(C)c1-c1cnc2c(c1)c(-c1cccc(C(=O)O)c1)cn2Cc1ccccn1` [P-0049, 3-(5-(3,5-dimethylisoxazol-4-yl)-1-(pyridin-2-ylmethyl)-1H-pyrrolo[2,3-b]pyridin-3-yl)benzoic acid] it was 8 to 1000 µM.
Regarding `Cc1noc(C)c1-c1cnc2c(c1)c(-c1cccc(C(=O)O)c1)cn2CC1CC1` [P-0050, 3-(1-(cyclopropylmethyl)-5-(3,5-dimethylisoxazol-4-yl)-1H-pyrrolo[2,3-b]pyridin-3-yl)benzoic acid], the IC50 lay within 8 to 1000 µM.
As for `Cc1noc(C)c1-c1cnc2c(c1)c(C#CC(C)(C)C(=O)O)cn2Cc1ccccc1` [P-0051, 4-(1-benzyl-5-(3,5-dimethylisoxazol-4-yl)-1H-pyrrolo[2,3-b]pyridin-3-yl)-2,2-dimethylbut-3-ynoic acid], the figure is 8 to 1000 µM.
As for `COC(=O)c1cc(-n2cc(Cc3ccccc3)c3ncc(-c4c(C)noc4C)cc32)ccn1` [P-0052, methyl 4-(3-benzyl-6-(3,5-dimethylisoxazol-4-yl)-1H-pyrrolo[3,2-b]pyridin-1-yl)picolinate], the figure is 1 to 8 µM; as for `Cc1noc(C)c1-c1cnc2c(Cc3ccccc3)cn(-c3ccnc(C(=O)O)c3)c2c1` [P-0053, 4-(3-benzyl-6-(3,5-dimethylisoxazol-4-yl)-1H-pyrrolo[3,2-b]pyridin-1-yl)picolinic acid], 1 to 8 µM.
In the case of `Cc1noc(C)c1-c1cnc2c(C(=O)c3ccccc3)cn(-c3ccnc(C(=O)O)c3)c2c1` [P-0054, 4-(3-benzoyl-6-(3,5-dimethylisoxazol-4-yl)-1H-pyrrolo[3,2-b]pyridin-1-yl)picolinic acid] it was 0.0001 to 1 µM; in that of `Cc1noc(C)c1-c1cnc2c(c1)c(-c1ccc(C(=O)O)cc1OC(F)(F)F)cn2-c1ccc(C2CC2)nc1` [P-0388, 4-(1-(6-cyclopropylpyridin-3-yl)-5-(3,5-dimethylisoxazol-4-yl)-1H-pyrrolo[2,3-b]pyridin-3-yl)-3-(trifluoromethoxy)benzoic acid], 1 to 8 µM.
As to `Cc1noc(C)c1-c1cnc2c(c1)c(-c1ccc(C(=O)O)cc1OC(F)(F)F)cn2C1CCC(C#N)C1` (stereo not drawn) [P-0389, 4-(1-(3-cyanocyclopentyl)-5-(3,5-dimethylisoxazol-4-yl)-1H-pyrrolo[2,3-b]pyridin-3-yl)-3-(trifluoromethoxy)benzoic acid], the 50% inhibitory concentration (IC50) was in the range of 1 to 8 µM.
Take `Cc1noc(C)c1-c1cnc2c(c1)c(-c1c(Cl)cc(C(=O)O)cc1OCC(F)F)cn2-c1cnc(C2CC2)nc1` [P-0390, 3-chloro-4-(1-(2-cyclopropylpyrimidin-5-yl)-5-(3,5-dimethylisoxazol-4-yl)-1H-pyrrolo[2,3-b]pyridin-3-yl)-5-(2,2-difluoroethoxy)benzoic acid]: the half-maximal inhibitory concentration (IC50) was 1 to 8 µM.
With `Cc1noc(C)c1-c1cnc2c(c1)c(-c1c(Cl)cc(C(=O)O)cc1OC1CCC1)cn2-c1cnc(C2CC2)nc1` [P-0391, 3-chloro-5-cyclobutoxy-4-(1-(2-cyclopropylpyrimidin-5-yl)-5-(3,5-dimethylisoxazol-4-yl)-1H-pyrrolo[2,3-b]pyridin-3-yl)benzoic acid], the IC50 was 1 to 8 µM.
As for `COc1ncc(-n2cc(-c3ccc(C(=O)O)cc3OC(F)(F)F)c3cc(-c4c(C)noc4C)cnc32)cn1` [P-0392, 4-(5-(3,5-dimethylisoxazol-4-yl)-1-(2-methoxypyrimidin-5-yl)-1H-pyrrolo[2,3-b]pyridin-3-yl)-3-(trifluoromethoxy)benzoic acid], the IC50 lay within 1 to 8 µM.
As for `Cc1noc(C)c1-c1cnc2c(c1)c(-c1c(Cl)cc(C(=O)O)cc1OC(C)C)cn2-c1cnc(C2CC2)nc1` [P-0393, 3-chloro-4-(1-(2-cyclopropylpyrimidin-5-yl)-5-(3,5-dimethylisoxazol-4-yl)-1H-pyrrolo[2,3-b]pyridin-3-yl)-5-isopropoxybenzoic acid], the figure is 1 to 8 µM; as for `Cc1noc(C)c1-c1cnc2c(c1)c(-c1c(F)cc(C(=O)O)cc1OC1CC1)cn2C(C1CC1)C1CC1` [P-0394, 3-cyclopropoxy-4-(1-(dicyclopropylmethyl)-5-(3,5-dimethylisoxazol-4-yl)-1H-pyrrolo[2,3-b]pyridin-3-yl)-5-fluorobenzoic acid], 1 to 8 µM.
In the case of `Cc1noc(C)c1-c1cnc2c(c1)c(-c1c(Cl)cc(C(=O)O)cc1OC(F)(F)F)cn2-c1ncccc1C#N` [P-0395, 3-chloro-4-(1-(3-cyanopyridin-2-yl)-5-(3,5-dimethylisoxazol-4-yl)-1H-pyrrolo[2,3-b]pyridin-3-yl)-5-(trifluoromethoxy)benzoic acid] it was 1 to 8 µM; in that of `Cc1noc(C)c1-c1cnc2c(c1)c(-c1c(Cl)cc(C(=O)O)cc1OC1CCC1)cn2-c1ncccc1C#N` [P-0396, 3-chloro-4-(1-(3-cyanopyridin-2-yl)-5-(3,5-dimethylisoxazol-4-yl)-1H-pyrrolo[2,3-b]pyridin-3-yl)-5-cyclobutoxybenzoic acid], 1 to 8 µM.
As for `Cc1noc(C)c1-c1cnc2c(c1)c(-c1c(F)cc(C(=O)O)cc1OC1CC1)cn2C1CCOCC1` [P-0397, 3-cyclopropoxy-4-(5-(3,5-dimethylisoxazol-4-yl)-1-(tetrahydro-2H-pyran-4-yl)-1H-pyrrolo[2,3-b]pyridin-3-yl)-5-fluorobenzoic acid], the figure is 8 to 1000 µM; as for `CCOc1nc(C(=O)O)c(Cl)cc1-c1cn(C2CCOCC2)c2ncc(-c3c(C)noc3C)cc12` [P-0398, 3-chloro-5-(5-(3,5-dimethylisoxazol-4-yl)-1-(tetrahydro-2H-pyran-4-yl)-1H-pyrrolo[2,3-b]pyridin-3-yl)-6-ethoxypicolinic acid], 8 to 1000 µM.

For orientation: IC50 means the midpoint of a concentration-inhibition curve.
